One data set can be described thus: stability of solid form. The format is physicochemical.
The next data set deals with α1L receptor. Particulars: isolated rabbit aorta model system; cited from earlier work.
A further data set is described as follows: water solubility. In kind it is physicochemical.
In data set [1] the target is T1, recombinant human 5-HT1A receptor (Homo sapiens, UniProt P08908).
T1 sequence (P08908 1-422): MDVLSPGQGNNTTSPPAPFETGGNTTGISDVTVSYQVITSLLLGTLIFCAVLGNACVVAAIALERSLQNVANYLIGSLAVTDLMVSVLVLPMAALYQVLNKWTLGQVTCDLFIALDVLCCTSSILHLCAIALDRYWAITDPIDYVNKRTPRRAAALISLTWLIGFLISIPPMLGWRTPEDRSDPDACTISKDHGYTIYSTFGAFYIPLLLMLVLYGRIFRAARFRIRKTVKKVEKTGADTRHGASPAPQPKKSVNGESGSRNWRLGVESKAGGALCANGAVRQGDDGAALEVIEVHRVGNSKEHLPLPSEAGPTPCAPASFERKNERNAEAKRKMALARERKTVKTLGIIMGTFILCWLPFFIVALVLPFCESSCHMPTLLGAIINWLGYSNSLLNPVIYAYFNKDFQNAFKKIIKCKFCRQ
Kind of data set: selectivity for α1a receptor relative to 5-HT1A receptor. The format is binding.

The target of a further data set is T2, α1d receptor (Homo sapiens, UniProt P25100).
T2 sequence (P25100 1-572): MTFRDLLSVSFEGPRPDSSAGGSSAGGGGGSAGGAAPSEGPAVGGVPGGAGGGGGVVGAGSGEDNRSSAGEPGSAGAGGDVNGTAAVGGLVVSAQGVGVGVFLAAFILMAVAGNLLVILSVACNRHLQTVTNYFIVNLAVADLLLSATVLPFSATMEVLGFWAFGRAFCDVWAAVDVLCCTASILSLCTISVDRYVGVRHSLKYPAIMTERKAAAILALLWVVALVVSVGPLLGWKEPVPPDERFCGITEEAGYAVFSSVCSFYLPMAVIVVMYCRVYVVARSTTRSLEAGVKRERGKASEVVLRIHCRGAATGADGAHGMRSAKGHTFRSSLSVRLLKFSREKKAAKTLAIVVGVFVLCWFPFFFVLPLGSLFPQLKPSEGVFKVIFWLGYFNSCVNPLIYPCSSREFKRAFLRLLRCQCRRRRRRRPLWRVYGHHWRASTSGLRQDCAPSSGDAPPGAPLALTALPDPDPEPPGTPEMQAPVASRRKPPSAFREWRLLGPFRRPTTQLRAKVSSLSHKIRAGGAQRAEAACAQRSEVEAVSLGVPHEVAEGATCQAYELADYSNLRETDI
As to the kind of experiment: selectivity for α1a receptor compared to α1d receptor. The format is binding.

The target of a further data set is T3, α1b receptor (Homo sapiens, UniProt P35368).
T3 sequence (P35368 1-520): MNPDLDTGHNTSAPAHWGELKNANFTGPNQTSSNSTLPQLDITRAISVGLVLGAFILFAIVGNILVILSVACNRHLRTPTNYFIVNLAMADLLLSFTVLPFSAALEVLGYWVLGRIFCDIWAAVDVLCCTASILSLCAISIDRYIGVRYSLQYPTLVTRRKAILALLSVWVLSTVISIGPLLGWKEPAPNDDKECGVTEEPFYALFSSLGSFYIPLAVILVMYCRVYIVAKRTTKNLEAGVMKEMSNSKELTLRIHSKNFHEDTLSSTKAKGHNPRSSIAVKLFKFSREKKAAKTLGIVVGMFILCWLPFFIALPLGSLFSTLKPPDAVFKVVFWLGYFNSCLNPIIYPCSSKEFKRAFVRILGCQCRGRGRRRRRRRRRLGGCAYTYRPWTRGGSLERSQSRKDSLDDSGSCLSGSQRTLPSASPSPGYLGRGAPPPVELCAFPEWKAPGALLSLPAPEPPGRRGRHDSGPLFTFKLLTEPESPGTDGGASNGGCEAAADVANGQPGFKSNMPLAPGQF
Kind of data set: selectivity for α1a receptor compared to α1b receptor. The format is binding.

Data set [2] addresses T4, recombinant human α1a receptor (Homo sapiens, UniProt P35348).
T4 sequence (P35348 1-466): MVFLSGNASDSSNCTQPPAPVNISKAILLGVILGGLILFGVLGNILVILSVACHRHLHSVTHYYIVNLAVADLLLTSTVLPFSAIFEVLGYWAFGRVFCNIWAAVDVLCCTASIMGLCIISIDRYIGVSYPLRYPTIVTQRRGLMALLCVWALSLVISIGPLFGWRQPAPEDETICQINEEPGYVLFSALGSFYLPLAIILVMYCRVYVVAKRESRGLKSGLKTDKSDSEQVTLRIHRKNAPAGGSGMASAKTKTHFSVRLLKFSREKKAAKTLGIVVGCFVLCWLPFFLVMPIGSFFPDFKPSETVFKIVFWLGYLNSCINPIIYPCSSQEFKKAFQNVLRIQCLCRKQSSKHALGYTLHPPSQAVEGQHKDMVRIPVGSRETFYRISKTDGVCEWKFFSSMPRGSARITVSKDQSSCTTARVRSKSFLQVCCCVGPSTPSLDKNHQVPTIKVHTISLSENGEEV
As to conditions: cited from earlier work.

The values below come from patent US20070185129A1, “ACID ADDITION SALTS OF THIENOPYRANCARBOXAMIDE DERIVATIVES” (Recordati Ireland Limited, priority 2006, published 2007).

For orientation: solubility means how much of the substance goes into solution per volume.

For the compound `COc1ccccc1N1CCN(CCCNC(=O)c2csc3c(=O)cc(C(F)(F)F)oc23)CC1` [Example 1, N-{3-[4-(2-methoxyphenyl)-1-piperazinyl]propyl}-7-oxo-5-trifluoromethyl-7H-thieno[3,2-b]pyran-3-carboxamide], the “heat stability / stability (in words)” value in “stability of solid form” is recorded as “heat instability”. Further, the “functional antagonism of the α1L receptor” value with α1L receptor is “functional antagonism”. Moreover, in the data set “water solubility”, the “water solubility (in words)” value was “poor water solubility”. The “selectivity for the recombinant human α1a receptor relative to the recombinant human 5-HT1A receptor” value in data set [1] was roughly 45 fold. For the same compound, the “selectivity for α1a receptor as compared to the α1d receptor” value on α1d receptor was roughly 6 fold. For the same compound, the “selectivity for α1a receptor as compared to the α1b receptor” value at α1b receptor is listed as roughly 40 fold. For the same compound, the “affinity for the α1a receptor” value in data set [2] is “high affinity”.

With `COc1ccccc1N1CCN(CCCNC(=O)c2csc3c(=O)cc(C(F)(F)F)oc23)CC1.CS(=O)(=O)O` [Example 2A, N-{3-[4-(2-methoxyphenyl)-1-piperazinyl]propyl}-7-oxo-5-trifluoromethyl-7H-thieno[3,2-b]pyran-3-carboxamide mesylate salt], in the data set “water solubility”, the “water solubility (in words)” value was “improved water solubility compared to the free base”. Moreover, in “water solubility” (water, at 25° C.), the solubility was 100 mg/mL.
